Measurements as given in ChEMBL document CHEMBL1201862, “PubChem BioAssay data set” (2004).
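Where inhibition never reached the appropriate level, the endpoint shown equals the highest concentration tested. Otherwise, values were interpolated linearly from a five-concentration, 48-hour dose response in 96-well plates. GI50: concentration for 50% inhibition of growth.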 Active and inactive are the calls of the source. No stated cut-off is given here; in the data, active = GI50 up to about 1.1 µM and inactive = higher.

What was measured:
Assay in all cases: NCI-60 cell line screen, 48 h
786-0 = tested on: 786-0
A498 = tested on: A498
A549 = tested on: A549
ACHN = tested on: ACHN
CAKI-1 = tested on: CAKI-1
CCRF-CEM = tested on: CCRF-CEM
COLO 205 = tested on: COLO 205
DLD-1 = tested on: DLD-1
DMS-114 = tested on: DMS-114
EKVX = tested on: EKVX
HCC 2998 = tested on: HCC 2998
HCT-116 = tested on: HCT-116
HCT-15 = tested on: HCT-15
HL-60 = tested on: HL-60
HOP-18 = tested on: HOP-18
HOP-62 = tested on: HOP-62
HOP-92 = tested on: HOP-92
HT-29 = tested on: HT-29
IGROV-1 = tested on: IGROV-1
K562 = tested on: K562
KM-20L2 = tested on: KM-20L2
KM12 = tested on: KM12
LOX IMVI = tested on: LOX IMVI
LXFL 529 = tested on: LXFL 529
M14 = tested on: M14
M19-MEL = tested on: M19-MEL
MOLT-4 = tested on: MOLT-4
Malme-3M = tested on: Malme-3M
NCI-H226 = tested on: NCI-H226
NCI-H23 = tested on: NCI-H23
NCI-H460 = tested on: NCI-H460
NCI-H522 = tested on: NCI-H522
OVCAR-3 = tested on: OVCAR-3
OVCAR-4 = tested on: OVCAR-4
OVCAR-5 = tested on: OVCAR-5
OVCAR-8 = tested on: OVCAR-8
RPMI-8226 = tested on: RPMI-8226
RXF 393 = tested on: RXF 393
RXF 631 = tested on: RXF 631
SF-268 = tested on: SF-268
SF-295 = tested on: SF-295
SF-539 = tested on: SF-539
SK-MEL-28 = tested on: SK-MEL-28
SK-MEL-5 = tested on: SK-MEL-5
SK-OV-3 = tested on: SK-OV-3
SN12C = tested on: SN12C
SNB-19 = tested on: SNB-19
SNB-75 = tested on: SNB-75
SNB-78 = tested on: SNB-78
SR = tested on: SR
SW-620 = tested on: SW-620
TK-10 = tested on: TK-10
U-251 = tested on: U-251
UACC-257 = tested on: UACC-257
UACC-62 = tested on: UACC-62
UO-31 = tested on: UO-31
DMS-273 = tested on: DMS-273
SK-MEL-2 = tested on: SK-MEL-2
XF498 = tested on: XF498

## C[C@H](OCc1ccccc1)C(=O)N1CCS(=O)(=O)N2CCC[C@H]2C1=O
786-0
  GI50: > 100 µM (inactive)
A498
  GI50: > 100 µM (inactive)
A549
  GI50: > 100 µM (inactive)
ACHN
  GI50: > 100 µM (inactive)
CAKI-1
  GI50: > 100 µM (inactive)
CCRF-CEM
  GI50: > 100 µM (inactive)
COLO 205
  GI50: > 100 µM (inactive)
DLD-1
  GI50: > 100 µM (inactive)
DMS-114
  GI50: > 100 µM (inactive)
EKVX
  GI50: > 100 µM (inactive)
HCC 2998
  GI50: > 100 µM (inactive)
HCT-116
  GI50: > 100 µM (inactive)
HCT-15
  GI50: > 100 µM
HL-60
  GI50: > 100 µM (inactive)
HOP-18
  GI50: > 100 µM (inactive)
HOP-62
  GI50: > 100 µM (inactive)
HOP-92
  GI50: > 100 µM (inactive)
HT-29
  GI50: > 100 µM (inactive)
IGROV-1
  GI50: > 100 µM (inactive)
K562
  GI50: > 100 µM (inactive)
KM-20L2
  GI50: > 100 µM (inactive)
KM12
  GI50: > 100 µM (inactive)
LOX IMVI
  GI50: > 100 µM (inactive)
LXFL 529
  GI50: > 100 µM (inactive)
M14
  GI50: > 100 µM (inactive)
M19-MEL
  GI50: > 100 µM (inactive)
MOLT-4
  GI50: > 100 µM (inactive)
Malme-3M
  GI50: > 100 µM (inactive)
NCI-H226
  GI50: > 100 µM (inactive)
NCI-H23
  GI50: > 100 µM (inactive)
NCI-H460
  GI50: > 100 µM (inactive)
NCI-H522
  GI50: > 100 µM (inactive)
OVCAR-3
  GI50: > 100 µM (inactive)
OVCAR-4
  GI50: > 100 µM (inactive)
OVCAR-5
  GI50: > 100 µM (inactive)
OVCAR-8
  GI50: > 100 µM (inactive)
RPMI-8226
  GI50: > 100 µM (inactive)
RXF 393
  GI50: > 100 µM (inactive)
RXF 631
  GI50: > 100 µM (inactive)
SF-268
  GI50: > 100 µM (inactive)
SF-295
  GI50: > 100 µM (inactive)
SF-539
  GI50: > 100 µM (inactive)
SK-MEL-28
  GI50: > 100 µM (inactive)
SK-MEL-5
  GI50: > 100 µM (inactive)
SK-OV-3
  GI50: > 100 µM (inactive)
SN12C
  GI50: > 100 µM (inactive)
SNB-19
  GI50: > 100 µM (inactive)
SNB-75
  GI50: > 100 µM (inactive)
SNB-78
  GI50: > 100 µM (inactive)
SR
  GI50: > 100 µM (inactive)
SW-620
  GI50: > 100 µM (inactive)
TK-10
  GI50: > 100 µM (inactive)
U-251
  GI50: > 100 µM (inactive)
UACC-257
  GI50: > 100 µM (inactive)
UACC-62
  GI50: > 100 µM (inactive)
UO-31
  GI50: > 100 µM (inactive)

## CC1(C)CC(=O)C(CC2C(=O)CCCC2=O)C(=O)C1
786-0
  GI50: > 100 µM (inactive)
A498
  GI50: > 100 µM (inactive)
A549
  GI50: > 100 µM (inactive)
ACHN
  GI50: > 100 µM (inactive)
CAKI-1
  GI50: > 100 µM (inactive)
CCRF-CEM
  GI50: > 100 µM (inactive)
COLO 205
  GI50: > 100 µM (inactive)
DLD-1
  GI50: > 100 µM (inactive)
DMS-114
  GI50: > 100 µM (inactive)
DMS-273
  GI50: > 100 µM (inactive)
EKVX
  GI50: > 100 µM (inactive)
HCC 2998
  GI50: > 100 µM (inactive)
HCT-116
  GI50: > 100 µM (inactive)
HCT-15
  GI50: > 100 µM
HL-60
  GI50: > 100 µM (inactive)
HOP-18
  GI50: > 100 µM (inactive)
HOP-62
  GI50: > 100 µM (inactive)
HT-29
  GI50: > 100 µM (inactive)
IGROV-1
  GI50: > 100 µM (inactive)
K562
  GI50: > 100 µM (inactive)
KM-20L2
  GI50: > 100 µM (inactive)
KM12
  GI50: > 100 µM (inactive)
LOX IMVI
  GI50: > 100 µM (inactive)
LXFL 529
  GI50: > 100 µM (inactive)
M14
  GI50: > 100 µM (inactive)
M19-MEL
  GI50: > 100 µM (inactive)
MOLT-4
  GI50: > 100 µM (inactive)
Malme-3M
  GI50: > 100 µM (inactive)
NCI-H226
  GI50: > 100 µM (inactive)
NCI-H23
  GI50: > 100 µM (inactive)
NCI-H460
  GI50: > 100 µM (inactive)
NCI-H522
  GI50: > 100 µM (inactive)
OVCAR-3
  GI50: > 100 µM (inactive)
OVCAR-4
  GI50: > 100 µM (inactive)
OVCAR-5
  GI50: > 100 µM (inactive)
OVCAR-8
  GI50: > 100 µM (inactive)
RXF 393
  GI50: > 100 µM (inactive)
SF-268
  GI50: > 100 µM (inactive)
SF-295
  GI50: > 100 µM (inactive)
SF-539
  GI50: > 100 µM (inactive)
SK-MEL-28
  GI50: > 100 µM (inactive)
SK-MEL-2
  GI50: > 100 µM (inactive)
SK-MEL-5
  GI50: > 100 µM (inactive)
SK-OV-3
  GI50: > 100 µM (inactive)
SN12C
  GI50: > 100 µM (inactive)
SNB-19
  GI50: > 100 µM (inactive)
SNB-75
  GI50: > 100 µM (inactive)
SNB-78
  GI50: > 100 µM (inactive)
SR
  GI50: > 100 µM (inactive)
SW-620
  GI50: > 100 µM (inactive)
TK-10
  GI50: > 100 µM (inactive)
U-251
  GI50: > 100 µM (inactive)
UACC-257
  GI50: > 100 µM (inactive)
UACC-62
  GI50: > 100 µM (inactive)
UO-31
  GI50: > 100 µM (inactive)
XF498
  GI50: 33.2 µM (inactive)
